Assay results: publication PMC3988029, “A Trisubstituted Benzimidazole Cell Division Inhibitor with Efficacy against Mycobacterium tuberculosis” (PLoS ONE, 2014)
≈ marks a conversion by molar mass, not a printed value. Where “and” joins values, the source holds several entries; their conditions need not be identical. Equal entries are not always repeated. Entries after “also recorded” stand apart in the source; their conditions may differ. Where two headings read alike, the source gives them in different places.

Columns and labels:
M. tuberculosis H37Rv [1] = details: lead selection from SAR studies; cited from earlier work
[2] = system: M. tuberculosis strain Erdman; assay: Modified rapid (acute) murine model of infection; type: in vivo, Mycobacterium tuberculosis
[3] = 100 ng/mL
Description: (§1) Blood was collected from animals using lithium heparin as anticoagulant, in the Animal Research & Welfare Domain at Disposition, Safety & Animal Research Montpellier (371 rue du Pr. J. Blayac, 34184 Montpellier Cedex 04, France) or vendors such as Charles River. Human plasma using lithium heparin as anticoagulant was provided by the EFS (Etablissement Français du Sang) of Montpellier, France. Plasma was spiked with the compound in order to obtain a final drug concentration of 100 ng/mL (expressed as non-salified compound). The spiked plasma (dedicated to C1h and C4h) was then incubated at 37°C for 1 h and 4 h. Plasma samples were analyzed by LC-MS/MS following protein precipitation. The limit of quantification for compounds was 10 ng/mL. Chromatographic conditions for LC analysis: 10 µL of the sample was injected to Luna Phenomenex C8 (50 mm×2.0 mm, 3 µm), Solvent A: ammonium acetate (0.15 g)/formic acid (2 mL)/HPLC water up to 1000 mL. […] MS/MS condition used for detection: Finnigan TSQ Quantum disco instrument, Excalibur version 2.0 acquisition system, ESI positive ion ionization mode. The mean percent of difference between C1h or C4h and C0 concentrations was calculated.
M%D (%) = 100 × [(C1h or C4h)–C0]/C0
(§2) The compounds were considered as stable if the mean percent of difference between C4h and C0 concentrations was less than 20%.

[4] = system: M. tuberculosis clinical isolates; details: determined and reported; cited from earlier work
[5] = 5 µM, 1 mg/mL microsomal protein, NADPH, 20 min
Description: (§3) The flavin-containing monooxygenases (FMO)-dependent reactions were run in the presence of bovine serum albumin (BSA, 0.1%) for the duration of 0 and 20 min (with or without microsomal proteins and/or cofactors). […] Following protein precipitation with acetonitrile and their removal by centrifugation, supernatant fluids were analyzed by LC/MS-MS.
(§4) Thermo Finnigan TSQ Quantum Ultra instrument, ESI positive ion ionization mode. Each compound is studied in duplicates. Results are expressed in percentage of lability (or total metabolism).
(§5) Total metabolism = [1– (UC1 Peak Area)/(UC2 Peak Area)] × 100.
(§6) UCn = Unchanged Compound in condition n;
(§7) n = 1: incubation in the presence of NADPH cofactor after T = 20 min.
(§8) n = 2: incubation without cofactor at T = 0 min.

[6] = 5 µM, 1 mg/mL microsomal protein, NADPH, 20 min; remark: listed apart in the source
Description: as §3, §4, §5, §6, §7, §8

M. tuberculosis W210 = assay: Microplate Alamar Blue assay (MABA) MIC; type: cell-based; details: Mycobacterium tuberculosis
M. tuberculosis H37Rv [7] = assay: Microplate Alamar Blue assay (MABA) MIC; type: cell-based; details: Mycobacterium tuberculosis
[8] = 100 ng/mL; remark: listed apart in the source
Description: as §1
M%D (%) = 100 × [(C1h or C4h)–C0]/C0
as §2

M. tuberculosis H37Rv [9] = assay: Time-dose growth (OD600 nm) and kill (CFU) curves; type: cell-based, Mycobacterium tuberculosis
Mtb FtsZ [10] = biological target: T1, Mtb FtsZ (Mycobacterium tuberculosis, UniProt P9WN95); assay: Transmission electron microscopy of FtsZ polymerization; type: biochemical, M. tuberculosis; details: FtsZ 5 µM, GTP 25 µM
T1 sequence (P9WN95 whole entry, looked up): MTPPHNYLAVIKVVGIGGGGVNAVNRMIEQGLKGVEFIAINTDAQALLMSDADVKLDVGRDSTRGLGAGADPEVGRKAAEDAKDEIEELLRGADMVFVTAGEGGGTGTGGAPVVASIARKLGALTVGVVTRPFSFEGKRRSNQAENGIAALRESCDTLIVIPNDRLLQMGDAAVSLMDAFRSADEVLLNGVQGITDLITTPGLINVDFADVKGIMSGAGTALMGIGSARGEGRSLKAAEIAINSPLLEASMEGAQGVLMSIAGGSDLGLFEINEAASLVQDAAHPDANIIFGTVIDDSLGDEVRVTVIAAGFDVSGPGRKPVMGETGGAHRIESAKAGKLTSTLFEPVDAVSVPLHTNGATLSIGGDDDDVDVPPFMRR

M. tuberculosis NHN20 = assay: Microplate Alamar Blue assay (MABA) MIC; type: cell-based; details: Mycobacterium tuberculosis
M. tuberculosis NHN382 = assay: Microplate Alamar Blue assay (MABA) MIC; type: cell-based; details: Mycobacterium tuberculosis
M. tuberculosis TN587 = assay: Microplate Alamar Blue assay (MABA) MIC; type: cell-based; details: Mycobacterium tuberculosis
Mtb FtsZ [11] = biological target: T1, Mtb FtsZ; details: earlier work of the authors; no reference given; cited from earlier work

Q: With `CCCCOC(=O)Nc1cc2nc(C3CCCCC3)[nH]c2cc1N(C)C` [SB-P17G-C2] as the compound, how does the MIC (M. tuberculosis H37Rv [1]) read?
A: 0.06 µg/mL (≈ 0.167 µM)

Q: And the “Reduction in the bacterial load in the lungs or spleen” value ([2]; acute mouse model, data not shown)?
A: no significant reduction; also recorded: did not significantly reduce the bacterial load in the lungs or spleen

Q: And the “Plasma Stability (% hydrolysis) Human (4 h)” value [3]?
A: 6.1%

Q: What about the “MIC values against clinical isolates” value [4] of the same compound?
A: 0.06 to 0.13 µg/mL

Q: What about the “Liver Microsome Lability Human” value [5] of the same compound?
A: 90%

Q: What about the “Liver Microsome Lability Mouse” value [6] of the same compound?
A: 96%

Q: Which MIC (M. tuberculosis W210) does the source give for `CN(C)c1cc2[nH]c(C3CCCCC3)nc2cc1NC(=O)c1ccc(OC(F)(F)F)cc1` [SB-P17G-A20] here?
A: 0.16 µg/mL (≈ 0.358 µM)

Q: What about the MIC (M. tuberculosis H37Rv [1]) of the same compound?
A: 0.16 µg/mL (≈ 0.358 µM)

Q: And the “Reduction in the bacterial load in the lungs” value ([2]; C57BL/6-Ifngtm1ts mice, 50 mg/kg IP bid, days 5 to 14 post-infection, vs infected controls)?
A: 1.73±0.24 log10 CFU

Q: What about the “Reduction in the bacterial load in the spleen” value ([2]; C57BL/6-Ifngtm1ts mice, 50 mg/kg IP bid, days 5 to 14 post-infection, vs infected controls, 50 mg/kg) of the same compound?
A: 2.68 log10 CFU and 2.68±0.48 log10 CFU

Q: And the “Plasma Stability (% hydrolysis) Human (4 h)” value [3]?
A: 0.1%

Q: What about the MIC (M. tuberculosis H37Rv [7]) of the same compound?
A: 0.16 µg/mL (≈ 0.358 µM)

Q: What about the “Liver Microsome Lability Human” value [5] of the same compound?
A: 39%

Q: What about the “Plasma Stability (% hydrolysis) Mouse (4 h)” value [8] of the same compound?
A: 24.4%

Q: And the “Concentration that steadily reduced bacterial viability” value (M. tuberculosis H37Rv [9]; CFU plating, day 0, 2, 4, 6)?
A: 0.08 µg/mL

Q: What about the Killing characteristics (M. tuberculosis H37Rv [9]; growth curves at various concentrations) of the same compound?
A: concentration-dependent inhibitor with sub-MIC inhibitory characteristics

Q: And the “Lowest concentration at which bacterial growth was reduced” value (M. tuberculosis H37Rv [9]; in some cases)?
A: 0.125 X MIC

Q: What about the “Effect on FtsZ polymers (TEM)” value (Mtb FtsZ [10]; 40 µM compound) of the same compound?
A: the length, density and aggregation was visibly reduced

Q: And the “Effect on FtsZ polymers (TEM)” value (Mtb FtsZ [10]; 80 µM compound)?
A: dispersed FtsZ polymers are observed

Q: What about the MIC (M. tuberculosis NHN20) of the same compound?
A: 0.16 µg/mL (≈ 0.358 µM)

Q: What about the MIC (M. tuberculosis NHN382) of the same compound?
A: 0.16 µg/mL (≈ 0.358 µM)

Q: What about the “Liver Microsome Lability Mouse” value [6] of the same compound?
A: 45%

Q: What about the MIC (M. tuberculosis TN587) of the same compound?
A: 0.16 µg/mL (≈ 0.358 µM)

Q: For `NNC(=O)c1ccncc1` [INH, isoniazid, reference compound], which “CFU counts in the lung and spleen” value ([2]; IP 20 mg/kg qd, control drug) is on record?
A: below the level of detection

Q: For `CCCCOC(=O)Nc1cc2nc(C3CCCCC3)[nH]c2cc1N(CC)CC` [SB-P3G2], which “Inhibition of FtsZ polymerization” value (Mtb FtsZ [11]) is on record?
A: inhibit FtsZ polymerization in a dose dependent manner
